In patent publication US20260240827A1, “PALATABLE LIQUID SOLUTION CONTAINING HIGH CONCENTRATION OF MIGLUSTAT” (THERANEXUS, priority 2022, published 2026):

Key:
[1] = Drug excipient compatibility: physical description after storage; type: physicochemical; details: up to 4 weeks 40° C./75% RH and 25° C./60% RH, 60° C. 1 week
Protocol: This study was conducted to assess the compatibility of miglustat with excipient candidates that can be used in the liquid Miglustat product. Each different excipient was manually stirred with miglustat and stored into amber glass vials.
Vials were stored in climatic chambers with different environmental conditions: 25° C./60% RH, 40° C./75% RH and 60° C. for up to 4 weeks, in closed containers. (RH=relative humidity)
After the defined storage time, samples were exited from the climatic chambers. Operators observed the solution and described the appearance of the solution by visual inspection.

[2] = ambient temperature; cited from earlier work

| SMILES | Compatibility of excipient with Miglustat in binary mixture (DEC study conclusion) [1] | Solubility in water [2] [mg/mL] |
| --- | --- | --- |
| CC1=CC(=O)NS(=O)(=O)O1 [Acesulfame Potassium] | not compatible | – |
| Cl [Hydrochloric acid] | not compatible | – |
| CCCCN1C[C@H](O)[C@@H](O)[C@H](O)[C@H]1CO [Miglustat, 1,5-(butylimino)-1,5-dideoxy-D-glucitol] | – | > 1000 |
| O=C([O-])c1ccccc1.[Na+] [Sodium Benzoate, sodium salt of benzoic acid] | compatible | – |
| O=C(O)C(O)C(O)C(=O)O (stereo not drawn) [Tartaric acid, 2,3-Dihydroxybutanedioic acid] | compatible | – |
| O=C1O[C@H]([C@@H](O)CO)C(O)=C1O [ascorbic acid] | not compatible | – |
